Results as given in patent EP2842557A1, “Mildronate in ophthalmic disorders” (SIGMA-TAU Industrie Farmaceutiche Riunite S.p.A., priority 2013, dated 2015).

Legend:
Format in all cases: in vivo, male Wistar rats
iNOS = iNOS expression by immunohistochemistry (confirmed by western blot of retina extracts)
Description: (§1) A group of 55 male Wistar rats, average weight 300-350 g, were housed in controlled light and temperature with unlimited access to food and water. 20 animals were submitted to intraocular injection of 0.5 mM, 2 mM, 3.5 mM, 5 mM mildronate, 15 µl in physiological solution, to standardize experimental conditions (data not shown). A group of 5 animals were submitted to intraocular injection of 2% methylcellulose (MTC), 15 µl in physiological solution. MTC is a molecule capable of mechanically blocking the outflow of aqueous humor leading to ocular hypertension.
(§2) Thirty animals were randomly separated into 3 experimental groups: rats from first group received mildronate 5 mM; rats from second group received mildronate 2 mM; rats from third group received mildronate 2 mM + L-carnitine 0.6 mM, 15 µl in physiological solution; all controlateral eyes were used as control.
(§3) After local anesthesia with 0.4% oxybuprocaine eye drops (Novesina™, Novartis, Basel, Switzerland) and after induction with ether, animal were injected in the posterior chamber of the right eye with solutions described above.
(§4) 24 hours after the intraocular injection, rats were given general anesthesia by intra-peritoneal injection of 500 pl sodium-thiopental solution (Farmotal™, Pharmacia & Upjohn, USA) in saline. They were then sacrificed by carotid bleeding and eyeballs were removed.
iNOS expression was detected with a rabbit polyclonal anti-iNOS antibody (Santa Cruz) (1:50), followed by a green fluorescent goat anti-rabbit IgG Alexa Fluor® (Molecular Probes) secondary antibody. […]
(§5) The observations were made under a fluorescence microscope and pictures taken by computerized image acquisition. […]

Caspase-3 = Caspase-3 expression by immunohistochemistry (confirmed by western blot of retina extracts)
Description: as §1, §2, §3, §4
Caspase-3 expression was detected with a rabbit polyclonal anti-caspase-3 antibody (Santa Cruz) (1:100), followed by a green fluorescent goat anti-rabbit IgG Alexa Fluor® (Molecular Probes) secondary antibody. […]
as §5

optic nerve and retina = experiment: Cellular morphology of optic nerve and retina sections after intraocular injection; details: 24 hours
Description: as §1, §2, §3
24 hours after the intraocular injection, rats were given general anesthesia by intra-peritoneal injection of 500 pl sodium-thiopental solution (Farmotal™, Pharmacia & Upjohn, USA) in saline. They were then sacrificed by carotid bleeding and eyeballs were removed. […]

[1] = tested on: RGCs and astrocytes cells of the optic nerve; experiment: TUNEL assay (DNA damage) on eye sections after intraocular injection; details: 24 hours
Description: as §1, with “hypertension. […]” for “hypertension.”
The sections (thickness of 10 µm), left to dry at room temperature for 30 min, were subjected to the following treatments: rehydration through a descending alcohol series (100°, 95°, 75°; 2 min each); incubation with protease 20 µg/mL in Triton X-100 to 0.1% at 37°C for 30 min; washes with 1X PBS for 2 min; incubation with TUNEL reagent (In Situ Cell Death Detection Kit, AP/ROCHE), containing 1/10 in volume of terminal deoxynucleotidyl transferase and the remaining fraction of nucleotides labeled with a fluorescent chromophore, 10 µl per section at 37°C for 1h. […] The observations were made under a fluorescence microscope and pictures were taken by computerized image acquisition.

C[N+](C)(C)NCCC(=O)[O-] [mildronate, 3-(2,2,2-trimethylhydrazinium)propionate]
iNOS expression (iNOS; 2 mM mildronate, optic nerve and retina, with respect to 5 mM mildronate-treated specimens): mild decrease of iNOS expression
iNOS expression (iNOS; 5 mM mildronate, 24 hours, glial retinal cells and astrocytes of optic nerve, compared to control): high levels of iNOS
NO levels and iNOS immunolocalization (iNOS; summary statement, dose not stated): increased NO levels and iNOS immunolocalization
Caspase-3 expression (Caspase-3; 2 mM mildronate, optic nerve and retina): mild decrease of positivity
Caspase-3 expression (Caspase-3; 5 mM mildronate, astrocytes and retinal cells): high caspase-3 levels
Apoptosis of retinal ganglion cells and optic nerve astrocytes (Caspase-3; summary statement, 24 hours after treatment): showed apoptosis
Cellular morphology of optic nerve (optic nerve and retina; mildronate 5 mM, 15 µl intraocular injection, vs control eye): fibers do not run longitudinally, the papilla shows an excavation
Cellular morphology of retina (optic nerve and retina; mildronate treated animals, intraocular injection): picnotic and/or vacuolated nuclei and fragmented chromatin
DNA damage (TUNEL fluorescence due to DNA fragmentation) ([1]; mildronate 2 mM): slight positive fluorescence
DNA damage (TUNEL fluorescence due to DNA fragmentation) ([1]; mildronate 5 mM, RGCs and astrocytes of the optic nerve): strong fluorescence
